{"source": "patent US6852756B1", "about": "“Use of pleuromutilin derivatives for transdermal treatment of bacterial diseases” (Novartis Animal Health US Inc., priority 1999, dated 2005)", "key": {"[1]": {"assay": "Preliminary test: transdermal study in pigs (tissue, bile and plasma concentrations after cutaneous administration)", "type": "in vivo", "conditions": "2 × 25 mg/kg of body weight", "experimental": "1. Preliminary Test: Transdermal Study in Pigs [table] The test solution is administered cutaneously to the skin of the animal and the […], lung, skin, bile and plasma concentrations are determined. For determining the concentrations (μg/ml of plasma or g of tissue) a calibration curve of valnemulin in plasma is used. These investigations are not meant to determine the exact values but to provide only a yes or no answer."}, "[2]": {"assay": "Assessment of the systemic absorption of valnemulin after cutaneous administration (footbath / foot spray) in cattle; HPLC of blood and milk", "type": "in vivo", "conditions": "lactating cows, footbath Day 1 and Day 3, foot spray Day 5, 10% valnemulin solution", "excerpt": "(§1) 2. Assessment of the Systemic Absorption of Valnemulin-Type of Compounds After Cutaneous Administration in Cattle Type of administration: Footbath or directly as spray Test Protocol: Four lactating adult cows with clinical signs of Bovine Digital Dermatitis are recruited to the study. Blood and milk samples are taken before, and at intervals after application of a water/ethanol solution containing 10% valnemulin either as a footbath, or directly by spraying the feet. Test Formulation: Water/ethanol solution containing 10% valnemulin [table] Footbath solutions are prepared fresh each treatment day. A calculated quantity of test product is added to an estimated volume of water, which is placed in the footbath beforehand. The cows are driven individually into the footbath and made to stand there with their feet covered by footbath solution for 2 minutes. Foot spraying involves the use of a hand operated spraying device into which 100 ml of the test product are placed. Said 100 ml are distributed between the feet of each cow and applied directly to the lower leg areas and around and underneath each foot. Valnemulin content of samples is determined by a validated High Performance Liquid Chromatography (HPLC) method. Day 1; a.m. milking samples (50 ml/sample) are taken before the first treatment, thus serving as control measurements. […]"}, "[3]": {"test_system": "Bovine Digital Dermatitis", "assay": "Footbath / foot spray treatment of lactating cows with clinical signs of Bovine Digital Dermatitis (footrot)", "type": "in vivo, cattle", "conditions": "four lactating cows; footbath Day 1 and Day 3, foot spray Day 5; 10% valnemulin solution; after one week", "experimental": "as §1, with “Disease: Footrot” for “2. Assessment of the Systemic Absorption of Valnemulin-Type of Compounds After Cutaneous Administration in Cattle”, “feet.” for “feet. Test Formulation: Water/ethanol solution containing 10% valnemulin [table]”, “foot.” for “foot. Valnemulin content of samples is determined by a validated High Performance Liquid Chromatography (HPLC) method. Day 1; a.m. milking samples (50 ml/sample) are taken before the first treatment, thus serving as control measurements.”"}, "[4]": {"assay": "Additional experiments: topical application as a spot on, tissue amounts, pigs", "type": "in vivo"}, "[5]": {"assay": "Additional experiments: topical application as a spot on, tissue amounts, cattle", "type": "in vivo"}, "[6]": {"conditions": "Animal No 1, water solution containing 10% valnemulin"}, "[7]": {"conditions": "Animal No 2, 40% ethanol/water solution containing 10% valnemulin"}}, "data": [{"compound": "C=C[C@]1(C)C[C@@H](OC(=O)CSC(C)(C)CNC(=O)[C@H](N)C(C)C)[C@]2(C)[C@H](C)CC[C@]3(CCC(=O)[C@H]32)[C@@H](C)[C@@H]1O", "note": "[valnemulin]", "values": [{"measurement": "bile concentration", "setting": "[1]; [6]", "result": "0.155 μg/ml of plasma or g of tissue"}, {"measurement": "liver concentration", "setting": "[1]; [6]", "result": "0.175 μg/ml of plasma or g of tissue"}, {"measurement": "lung concentration", "setting": "[1]; [6]", "result": "0.916 μg/ml of plasma or g of tissue"}, {"measurement": "plasma concentration 3 hours after 1st application", "setting": "[1]; [6]", "result": "<limit of detection"}, {"measurement": "plasma concentration 6 hours after 1st application", "setting": "[1]; [6]", "result": "<limit of detection"}, {"measurement": "skin concentration", "setting": "[1]; [6]", "result": "39.056 μg/ml of plasma or g of tissue"}, {"measurement": "bile concentration", "setting": "[1]; [7]", "result": "<limit of detection"}, {"measurement": "liver concentration", "setting": "[1]; [7]", "result": "0.132 μg/ml of plasma or g of tissue"}, {"measurement": "lung concentration", "setting": "[1]; [7]", "result": "0.353 μg/ml of plasma or g of tissue"}, {"measurement": "plasma concentration 3 hours after 1st application", "setting": "[1]; [7]", "result": "<limit of detection"}, {"measurement": "plasma concentration 6 hours after 1st application", "setting": "[1]; [7]", "result": "0.07 μg/ml of plasma or g of tissue"}, {"measurement": "skin concentration", "setting": "[1]; [7]", "result": "6.965 μg/ml of plasma or g of tissue"}, {"measurement": "valnemulin concentrations in blood samples", "setting": "[2]", "result": "found in most milk and blood samples"}, {"measurement": "valnemulin concentrations in milk samples", "setting": "[2]", "result": "found in most milk and blood samples"}, {"measurement": "symptoms of footrot after treatment", "setting": "[3]", "result": "none of the treated cows shows any symptoms of footrot"}, {"measurement": "amounts of active ingredient found in tissues (brain, liver, muscle, spleen, lung)", "setting": "[4]", "result": "fairly high amounts"}, {"measurement": "amounts of active ingredient found in tissues (brain, liver, muscle, spleen, lung)", "setting": "[5]", "result": "fairly high amounts"}]}]}
